Article PMC5458078, “Global mapping of CARM1 substrates defines enzyme specificity and substrate recognition” (Nature Communications, 2017)
Read-outs that look alike come from different tables or passages of the source.

Experiments:
[1] = system: histone substrate; conditions: cited from earlier work
Text: page 18: We agree with the reviewer’s assertion that proteomic experiments generally suffer from the abundance bias. However, we, and others, argue that analyses of post-translational modifications are less affected by this issue, as the immunoprecipitation and other methods of PTM enrichment rely on the abundance of the PTM itself, not the protein that bears it, i.e., a strongly modified low abundance protein is as likely to be pulled down as a lowly modified high abundance protein.

[2] = system: MCF7 cells; experiment: Quantitative nanoLC-MS/MS (TMT) of ADMA-containing peptides, CARM1 KO vs parental; format: cell-based, human; design: Fold change KO/WT: scale not given here
[3] = system: MCF7 CARM1 KO cells; experiment: Quantitative MS of ADMA-containing peptides in MCF7 CARM1 KO cells expressing CARM1 28-608 or CARM1 140-608, and in CARM1 KO; format: cell-based, human
[4] = ADMA-containing peptide, MCF7, CARM1 knockout (KO1-3) vs wild type (WT1-3), TMT 6-plex experiment #1
[5] = CARM1 140-608 versus WT, difference of mean log2 values
[6] = CARM1 KO versus WT, difference of mean log2 values
[7] = MCF7 CARM1 knockout vs wild type, 3 biological replicates each, values are on log2 scale
[8] = mean, CARM1 140-608 versus WT (log2 scale)
[9] = mean, CARM1 KO versus WT (log2 scale)
[10] = log2 scale ratio, mean of n = 3
[11] = MCF7, CARM1 knockout vs wild type, n = 3 each
[12] = ratio on log2 scale, mean of 3 replicates
[13] = MCF7, CARM1 KO (KO1-KO3) vs wild type (WT1-WT3)
[14] = CARM1 140-608 vs WT, mean of 3 replicates (log2 scale)
[15] = KO vs WT, mean of 3 replicates (log2 scale)

In the case of “PRMT1: protein arginine methyltransferase 1”, the Km ([1]; PRMT1, histone substrate, ref Pak et al., Biochem 2011) is given as 4.2 µM.

With TDGFAEAIHSPQVAGVPrFR the “Fold change KO/WT” value [2, 4] was -1.53, the “CARM1 140-608/WT” value [3, 5] was -1.17 and the KO/WT [3, 6] was -1.53.

In the case of HSAYSYCGrGFYPQYGALETrGGFNPR, the “Fold change KO/WT” value [2, 7] is reported as -0.3157, the “CARM1 140-608/WT” value [3, 8] is reported as -0.5986 and the KO/WT [3, 9] is reported as -0.0486.

With FAPrGAPHFrFIIAGR the “Fold change KO/WT” value [2, 4] was -0.1223, the “CARM1 140-608/WT” value [3, 10] was -0.6829 and the KO/WT [3, 10] was -0.5952.

In the case of GArLPGPVSSAR, the “Fold change KO/WT” value ([2]; MCF7, CARM1 KO vs WT, three biological replicates each) is reported as -2.095, the “CARM1 140-608/WT” value ([3]; CARM1 140-608 vs WT, mean of 3 replicates, log2) is reported as -1.788 and the KO/WT ([3]; KO vs WT, mean of 3 replicates, log2) is reported as -2.095.

For AMLPGSPLFTrAPPPK, the “Fold change KO/WT” value ([2]; ADMA-containing peptide, CARM1 knockout (KO) vs wild type (WT) MCF7 cells, 6-plex TMT experiment #1, three biological replicates each, sheet "MCF7") was -3.62, the “CARM1 140-608/WT” value ([3]; CARM1 140-608 versus WT, mean of three replicates (log2)) was -2.658 and the KO/WT ([3]; KO versus WT, mean of three replicates (log2)) was -3.62.

In the case of TYQASSAAFrYTAGTPYK, the “Fold change KO/WT” value [2, 11] is reported as -4.425, the “CARM1 140-608/WT” value [3, 12] is reported as -4.171 and the KO/WT [3, 12] is reported as -4.425.

For SGIILrSPrPDFrPrEPFLSrDPFHSLK, the “Fold change KO/WT” value [2, 13] was -2.553, the “CARM1 140-608/WT” value [3, 14] was -0.96 and the KO/WT [3, 15] was -2.553.

With “STLKPQPAPQAGPIPVAPIGTLKPQPQPVPASYTTASTSSrPTFNVQVK” the “Fold change KO/WT” value [2, 7] was -3.941, the “CARM1 140-608/WT” value ([3]; difference of log2 means, CARM1 140-608 vs WT) was -2.676 and the KO/WT ([3]; difference of log2 means, KO vs WT) was -3.941.

For VFrYSTSLEK, the “Fold change KO/WT” value [2, 13] was 0.0856, the “CARM1 140-608/WT” value [3, 14] was 0.01169 and the KO/WT [3, 15] was 0.0856.

With LLGQRPGPYDRPIGGrGGYYGAGrGSMYDR the “Fold change KO/WT” value [2, 7] was 0.5689, the “CARM1 140-608/WT” value [3, 8] was -0.09536 and the KO/WT [3, 9] was 1.04.

With “GAAGAVTQSLSrTPTATTSGIrATLTPTVLAPrLPQPPQNPTNIQNFQLPPGMVLVR” the “Fold change KO/WT” value [2, 4] was -4.565, the “CARM1 140-608/WT” value [3, 10] was -3.099 and the KO/WT [3, 10] was -4.565.

With “MGTPVPRPPQDMGQIGVrTPLGPrVAAPVGPVGPTPTVLPMGAPVPRPrGPPPPPGDENR” the “Fold change KO/WT” value [2, 13] was -3.388, the “CARM1 140-608/WT” value [3, 14] was -2.483 and the KO/WT [3, 15] was -3.388.

In the case of “GGGSGNFMGrGGNFGGGGGNFGrGGNFGGrGGYGGGGGGSR”, the “Fold change KO/WT” value [2, 11] is reported as -0.1359, the “CARM1 140-608/WT” value [3, 8] is reported as -0.1884 and the KO/WT [3, 9] is reported as -0.008363.

In the case of “SHLSTAGGLAVPSLPTAGPYYSPYALYGQrLASASALGYQ”, the “Fold change KO/WT” value ([2]; CARM1 KO vs wild type MCF7 cells, 3 biological replicates each) is reported as -2.553, the “CARM1 140-608/WT” value [3, 5] is reported as -2.31 and the KO/WT [3, 6] is reported as -2.998.

B1: CARM1: coactivator-associated arginine methyltransferase 1 (protein)
chain: MAAAAAAVGPGAGGAGSAVPGGAGPCATVSVFPGARLLTIGDANGEIQRHAEQQALRLEVRAGPDSAGIALYSHEDVCVFKCSVSRETECSRVGKQSFIITLGCNSVLIQFATPNDFCSFYNILKTCRGHTLERSVFSERTEESSAVQYFQFYGYLSQQQNMMQDYVRTGTYQRAILQNHTDFKDKIVLDVGCGSGILSFFAAQAGARKIYAVEASTMAQHAEVLVKSNNLTDRIVVIPGKVEEVSLPEQVDIIISEPMGYMLFNERMLESYLHAKKYLKPSGNMFPTIGDVHLAPFTDEQLYMEQFTKANFWYQPSFHGVDLSALRGAAVDEYFRQPVVDTFDIRILMAKSVKYTVNFLEAKEGDLHRIEIPFKFHMLHSGLVHGLAFWFDVAFIGSIMTVWLSTAPTEPLTHWYQVRCLFQSPLFAKAGDTLSGTCLLIANKRQSYDISIVAQVDQTGSKSSNLLDLKNPFFRYTGTTPSPPPGSHYTSPSENMWNTGSTYNLSSGMAVAGMPTAYDLSSVIASGSSVGHNNLIPLANTGIVNHTHSRMGSIMSTGIVQGSSGAQGSGGGSTSAHYAVNSQFTMGGPAISMASPMSIPTNTMHYGS
modifications: left off: FLAG, end not stated, kept
For B1, the Km ([1]; CARM1, natural histone substrate, ref Jacques et al., 2016) is given as 0.15 µM.
